Test results from paper PMC5707495, “Systematic re-evaluation of the bis(2-hydroxyethyl)disulfide (HEDS) assay reveals an alternative mechanism and activity of glutaredoxins” (Chemical Science, 2015).

Key:
PfGrx = target: T1, PfGrx (Plasmodium falciparum, UniProt Q9NLB2); assay: HEDS assay coupled to glutathione reductase, NADPH […] nm; type: biochemical; conditions: co-substrate GSH; sequential kinetics; pH 8.0, 25 °C
T1 construct: gene PF3D7_0306300; dithiol Grx with Cys29 and Cys32 (CPYC motif) and Cys88 (GGC motif)
T1 sequence (Q9NLB2 1-111): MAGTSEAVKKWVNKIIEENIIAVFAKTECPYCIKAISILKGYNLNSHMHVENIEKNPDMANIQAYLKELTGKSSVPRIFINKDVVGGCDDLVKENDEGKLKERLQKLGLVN

ScGrx7 = target: T2, ScGrx7 (Saccharomyces cerevisiae, UniProt P38068); assay: HEDS assay coupled to glutathione reductase, NADPH […] nm; Km replot and Dixon plot; type: biochemical
T2 construct: gene GRX7; recombinant, N-terminal MRGS(H)6 tag kept, altered stop codon; E. coli XL1-Blue; non-covalent dimer; monothiol, one Cys per subunit
T2 sequence (P38068 37-203 limits assumed): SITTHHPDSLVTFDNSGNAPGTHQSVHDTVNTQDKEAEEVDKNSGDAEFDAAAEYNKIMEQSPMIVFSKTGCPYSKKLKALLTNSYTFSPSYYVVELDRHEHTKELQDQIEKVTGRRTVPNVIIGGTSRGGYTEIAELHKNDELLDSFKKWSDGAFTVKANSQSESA

Row | Ki (ScGrx7) [µM] | SMILES | HEDS assay coupled to glutathione reductase, NADPH 340 nm (PfGrx)
1 | – | OCCSSCCO [HEDS, bis(2-hydroxyethyl)disulfide] | HEDS assays with PfGrx yielded sequential kinetic patterns
2 | 180 | OCCS [2-ME] | –
